In series [1] the test system is brain endothelial cells (RBMVEC) and astroglial cells (CTX TNA2).
Protocol: Each peptide was tested at different time points in triplicate next to an unseeded negative control (“Empty”) and quantitatively analyzed via HPLC using a calibration curve to determine the concentration of the peptide in the receiving chamber at each point in time (Figure 11). From these values, the volume of each chamber, and the respective time, a Papp permeability coefficient in cm²/s was calculated for each substance to represent its ability to cross the in vitro blood–brain barrier model.
An amount equaling 1 mg/mL TF2D-5 (A) or TF2D-5a (B) was added to an insert that was seeded and covered with endothelial and astroglial cells, representing the in vitro blood–brain barrier, or an empty insert serving as a control. After different time points, samples were taken and analyzed by quantitative HPLC analysis. Data given as mean ± SD out of three independent replicates.
Brain endothelial cells from rats and astroglial cells were used to cultivate the different sides of the porous membrane.
Brain endothelial cells from rats (RBMVEC, Cell Applications Inc., R840-05a, San Diego, CA, USA) were cultivated in Complete Classic medium (Cell Systems, Kirkland, WA, USA, 4Z0-500), and rat astroglial cells (CTX TNA2, ATCC, CRL-2006) were cultivated in Complete Classic medium (Cell Systems, Kirkland, WA, USA, 4Z0-500). The cells were allowed to grow in a humidified incubator with 5% CO2 at 37 °C and a maximum of 20 passages. The cells were passaged every 3 to 5 days, according to their confluence.
In order to set up the in vitro BBB model, the astroglial cells were seeded at a density of 600.000 cells/cm² on the outer (basolateral, “brain”) side of an insert with a porous membrane (Corning Transwell polycarbonate membrane cell culture inserts, CLS3415, 3 µM pore size) and allowed to grow/adhere overnight in the Complete Classic medium. The next day, brain endothelial cells were seeded at a density of 600.000 cells/cm² on the inner side (apical, “blood”) of the corresponding membrane. The seeded inserts were then cultivated to grow to full confluence over a period of 5 to 7 days, with the medium renewed daily. […] Prior to this, TEER (transendothelial electrical resistance values) were measured in each well to ensure the integrity of the in vitro BBB. At 0, 30, 60, 90, 120, 150, 180, and 240 min, 50 µL of the medium out of the outer chamber was taken and analyzed by HPLC. This 50 µL would then be replaced by the same amount of fresh serum-free medium to keep the fluid levels equal across both chambers. This slight dilution was factored into the following calculations. Furthermore, a dilution series of each reagent was analyzed alongside the samples as a calibration to quantify the analysis. […] The Papp values were calculated as follows (higher is better): Papp =(V/A∗C)∗(Dc/Dt)
Series [2] is described as follows: Stability in human liver microsomes. In kind it is in vitro ADME. The note with it: 6 mg/mL protein, 1.3 mM NADPH with regenerating system, pH 7.4, after 24 h, read-out: still unmetabolized in human liver microsomes. As to the method:
(§1) Figure 12 Stability assay of TF2D-5 and TF2D-5a using different simulated human body fluids. (A) Stability of compounds in simulated gastric fluid (SGF). The simulated gastric fluid consisted of 2 mg/mL sodium chloride, 3.2 mg/mL pepsin, and 80 mM HCl; pH 1. (B) Stability of TF2D-5 and TF2D-5a in simulated intestinal fluid (SIF). Simulated intestinal fluid consisted of 6.8 mg/mL potassium dihydrogen phosphate, 10 mg/mL pancreas powder, and 15.4 mM NaOH; pH 6.8. (C) Stability of TF2D-5 and TF2D-5a in human blood plasma. K3EDTA human blood plasma was purchased from BioTrend. (D) Stability of TF2D-5 and TF2D-5a in human liver microsomes. Human liver microsomes consisted of 6 mg/mL protein (containing Cytochrome P450 (CYP) enzymes), 75 mM sucrose, 1.3 mM NADPH, 3.3 mM D-glucose-6-phosphat, 0.2 u/mL D-glucose-6-phosphat dehydrogenase, 3.3 mM magnesium chloride, and 100 mM potassium phosphate; pH 7.4.
(§2) The stability of the compounds was tested according to Elfgen et al. and Schemmert et al. Exceptions included the extraction of plasma, simulated gastric fluid (SGF), and simulated intestinal fluid (SIF) samples. These were obtained by the addition of 12.5 µL 0.35 M ZnSO4, followed by vortexing, the addition of 12.5 µL 0.5 M HCl, additional vortexing, and centrifugation at 14,000× g for 10 min at 4 °C.

The test system of the next series is SH-SY5Y cells. Briefly: Cell-viability assay (MTT). The conditions noted are these: 0.2, 1 and 5 µM, 24 h, 37 °C. In kind it is cell-based, human. On the procedure: (§3) Human […] SH-SY5Y cells and rat pheochromocytoma PC12 cells were cultivated in RPMI medium with 10% fetal bovine serum and 5% horse serum. On a collagen-coated 96-well plate (Gibco, Life Technology, Carlsbad, CA, USA), 10.000 cells were seeded per well. The plate was incubated for 24 h at 37 °C and 5% CO2. TF2D-5 and TF2D-5a were added to the cells at concentrations of 0.2 µM, 1 µM, and 5 µM, respectively. As a positive control, 0.1% Trion X-100 was used. A medium was used as a negative control. The samples were incubated for a further 24 h at 37 °C and 5% CO2. Cell viability was determined by using the Cell Proliferation Kit 1 (MTT) (Roche, Basel, Switzerland) according to the instruction manual. The absorbance of generated formazan products was measured using a CLARIOstar plate reader (BMG, Offenburg, Germany). Absorption at 570 nm was measured and referenced against absorbance at 660 nm.
(§4) Figure S3. Peptide toxicity assay for different concentrations of TF2D -5 and TF2D-5a.
(§5) For this assay the compounds TF2D -5 and TF2D-5a were incubated on SHSY5Y and PC12 cells for 24 h at 37 °C and 5 % CO2. The “Cell Proliferation Kit 1” from Roche was used for the MTT assay. RPMI with 10 % HS and 5 % FBS was used as cell medium. As […] 0.1 % Triton X100 was used. For both assays no negative effect on the cell viability could be observed by addition of both compounds. […]

Series [3] is described as follows: Stability in simulated intestinal fluid. The series is classed as in vitro ADME. On the procedure: as §1, §2
Series [4] is described as follows: Stability in human blood plasma. The note with it: K3EDTA human blood plasma, after 48 h; read-out: still detectable in human blood plasma. The series is classed as in vitro ADME. As to the method:
as §1, §2

Series [5] in a line: Stability in simulated gastric fluid. The conditions noted are these: SGF: 2 mg/mL NaCl, 3.2 mg/mL pepsin, 80 mM HCl, pH 1; 8 h. In kind it is in vitro ADME. As to the method: as §1, §2
The subject of another series is PC12 cells. Put plainly: Cell-viability assay (MTT). The series is classed as cell-based, rat. The conditions noted are these: 0.2, 1 and 5 µM, 24 h, 37 °C. As to the method: as §3, §4, §5
The target in another series is T1, full-length tau 441 (Homo sapiens, UniProt P10636).
T1 construct: The gene for the human full-length tau was prepared on a plasmid called pET28a(+)-tau2N4R; made in house; host or cells: E. coli pRare
T1 sequence (P10636 1-441 isoform P10636-8): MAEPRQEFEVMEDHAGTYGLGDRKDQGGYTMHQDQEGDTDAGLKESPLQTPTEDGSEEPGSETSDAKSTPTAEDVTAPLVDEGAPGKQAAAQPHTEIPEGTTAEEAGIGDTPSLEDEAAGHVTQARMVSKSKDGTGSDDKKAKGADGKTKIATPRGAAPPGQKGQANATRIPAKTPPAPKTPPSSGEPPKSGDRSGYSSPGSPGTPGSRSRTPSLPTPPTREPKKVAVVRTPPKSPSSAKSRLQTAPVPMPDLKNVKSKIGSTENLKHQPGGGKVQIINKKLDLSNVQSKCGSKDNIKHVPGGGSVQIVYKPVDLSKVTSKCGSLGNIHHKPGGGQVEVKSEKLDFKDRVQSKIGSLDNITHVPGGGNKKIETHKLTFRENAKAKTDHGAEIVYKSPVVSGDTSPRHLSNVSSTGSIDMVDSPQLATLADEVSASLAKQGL
Briefly: Thioflavin-T assay of heparin-induced tau aggregation. In kind it is biochemical. On the procedure: Figure 5 Tau aggregation-influencing effect of TF2D-5 and TF2D-5a. The ThT assay was performed in a FLUOstar plate reader from BMG Labtech. Twenty-five micrometers recombinant full-length tau 441 was mixed with 12.5 µM heparin, 200 µM DTT, 0.05% NaN3, and […]. Compounds were added with a concentration of 25 µM. The total volume was adjusted to 100 µL with PBS pH 7.4, and the plate was measured with bottom optics. The experiment ran at 37 °C with measurement intervals of 20 min. Before each measurement, the plate was shaken for 15 s at 300 rpm. A 3 mm borosilicate bead was added to each well. (A) The effect of TF2D-5 when added at different time points during the ThT assay. When added at the start of the experiment no aggregation can be observed for the duration of the experiment (green). […] (B) The addition of TF2D-5a to the sample inhibits tau aggregation during the complete experiment which equals a lag time increase of at least 400% (blue). […] CP1 was obtained by randomizing the amino acid residue composition of TF2D-5.
To investigate whether TF2D-5 and TF2D-5a induce an extension of the lag time of tau aggregation, we performed a ThT experiment with sub-stoichiometric D-peptide concentrations. For this, we used tau that was produced according to the protocol in the Section 4. Twenty-five micrometers of full-length tau was incubated with 6.25 µM, 12.5 µM 25 µM, 50 µM, and 100 µM of D-peptides. As expected, we observed an increase in the lag time of the full-length tau aggregation with the increasing D-peptide concentrations. […] The addition of 6.25 µM of TF2D-5a shifted the lag time by about 60 h (a 200% increase).
ThT assays to characterize the aggregation inhibition properties of the selected compounds were conducted as follows. All measurements were performed in a FLUOstar plate reader (BMG, Offenburg, Germany). Recombinant full-length tau 441 (25 µM) was mixed with heparin (12.5 µM), DTT (200 µM), NaN3 (0.05%), and ThT (20 µM). […] The compounds were added with a maximum concentration of 25 µM. The total volume was adjusted to 100 µL with PBS pH 7.4, and the plate (Corning, New York, NY, USA) was measured with bottom optics. A 3 mm borosilicate bead (Hilgenberg GmbH, Malsfeld, Germany) was added to each well. The experiment ran at 37 °C, with measurement intervals of 20 min. Before each measurement, the plate was shaken for 15 s at 300 rpm.

Where [6] appears, read: 6.25 µM D-peptide, 25 µM full-length tau.

Molecules are shown by their SMILES. Non-standard residues stand in square brackets, D forms with d. Residues, ends and D or L forms follow the SMILES beside them.

For `CC[C@@H](C)[C@@H](NC(=O)[C@@H](Cc1c[nH]cn1)NC(=O)CNC(=O)CNC(=O)[C@H]1CCCN1C(=O)[C@H](NC(=O)[C@@H](CCCCN)NC(=O)[C@@H](Cc1ccccc1)NC(=O)[C@@H](CC(C)C)NC(=O)[C@H](NC(=O)[C@@H](CCC(N)=O)NC(=O)[C@@H](Cc1ccc(O)cc1)NC(=O)CNC(=O)CNC(=O)[C@H](N)CC(=O)O)[C@H](C)CC)[C@H](C)CC)C(=O)N[C@H](Cc1c[nH]cn1)C(=O)N[C@H](CCCNC(=N)N)C(=O)N[C@H](CCCNC(=N)N)C(=O)N[C@H](CCCNC(=N)N)C(=O)N[C@H](CCCNC(=N)N)C(=O)N[C@H](CCCNC(=N)N)C(N)=O` [TF2D-5a] (H-[dD]GG[dY][dQ][dI][dL][dF][dK][dI][dP]GG[dH][dI][dH][dR][dR][dR][dR][dR]-NH2), the Papp permeability coefficient in series [1] amounted to 48 ×10⁻⁶ cm/s. For the same compound, in series [2], the remaining at 24 h came out at 13.2%. The “toxicity (cell viability, MTT)” value in the series on SH-SY5Y cells and in the series on PC12 cells was “not toxic” each time. In series [3] (simulated intestinal fluid with pancreas powder, SIF pH 6.8, 10 mg/mL pancreas powder, after about 8 h, read-out: decrease of level in simulated intestinal fluid), the metabolised at 8 h is 27.8%. Also, the remaining at 48 h in series [4] was determined as 86.5%. In addition, in series [5], the “stability in simulated gastric fluid” value is recorded as “very stable in simulated gastric fluid”. In addition, the lag time increase is 200% at full-length tau 441 (setting [6]) and “at least 400%” on full-length tau 441 (25 µM compound, 25 µM tau 441, added at start).

In turn, `CC[C@@H](C)[C@@H](NC(=O)[C@@H](Cc1c[nH]cn1)NC(=O)CNC(=O)CNC(=O)[C@H]1CCCN1C(=O)[C@H](NC(=O)[C@@H](CCCCN)NC(=O)[C@@H](Cc1ccccc1)NC(=O)[C@@H](CC(C)C)NC(=O)[C@H](NC(=O)[C@@H](CCC(N)=O)NC(=O)[C@@H](Cc1ccc(O)cc1)NC(=O)CNC(=O)CNC(=O)[C@H](N)CC(=O)O)[C@H](C)CC)[C@H](C)CC)C(=O)N[C@H](Cc1c[nH]cn1)C(N)=O` [TF2D-5] (H-[dD]GG[dY][dQ][dI][dL][dF][dK][dI][dP]GG[dH][dI][dH]-NH2) gave a Papp permeability coefficient in series [1] of 3.6 ×10⁻⁶ cm/s. In addition, the remaining at 24 h in series [2] stood at 3.7%. For the same compound, the “toxicity (cell viability, MTT)” value with SH-SY5Y cells and in the series with PC12 cells was “not toxic” in each case. Besides, the “stability in simulated intestinal fluid” value in series [3] (SIF: 6.8 mg/mL KH2PO4, 10 mg/mL pancreas powder, 15.4 mM NaOH, pH 6.8) was “stable in simulated intestinal fluid”. The remaining at 48 h in series [4] amounted to 97.4%. Further, in series [5], the “stability in simulated gastric fluid” value was “very stable in simulated gastric fluid”. The lag time increase at full-length tau 441 (setting [6]) turned out to be 100%; at full-length tau 441 (12.5 µM D-peptide, 25 µM full-length tau), 200%.

Values taken from PMC9917023, “Stabilization of Monomeric Tau Protein by All D-Enantiomeric Peptide Ligands as Therapeutic Strategy for Alzheimer’s Disease and Other Tauopathies” (International Journal of Molecular Sciences, 2023).
